# Columns and labels:
# Type in all cases: functional, cell-based
# HT-1080 = assay: Cytotoxicity against human HT1080 cells after 48 hrs by MTT assay; settings: HT-1080, 48 h
# U-937 = assay: Cytotoxicity against human U937 cells after 48 hrs by MTT assay; settings: U-937, 48 h
# HCT-116 = assay: Cytotoxicity against human HCT116 cells after 48 hrs by MTT assay; settings: HCT-116, 48 h
# MCF7 = assay: Cytotoxicity against human MCF7 cells after 48 hrs by MTT assay; settings: MCF7, 48 h
# HepG2 = assay: Cytotoxicity against human HepG2 cells after 48 hrs by MTT assay; settings: HepG2, 48 h
# A549 = assay: Cytotoxicity against human A549 cells after 48 hrs by MTT assay; settings: A549, 48 h
# HL-60 = assay: Cytotoxicity against human HL60 cells after 48 hrs by MTT assay; settings: HL-60, 48 h
# [1] = Cytotoxicity against human A375-S2 cells after 48 hrs by MTT assay; settings: A375-S2, 48 h
# K562 = assay: Cytotoxicity against human K562 cells after 48 hrs by MTT assay; settings: K562, 48 h
# HeLa = assay: Cytotoxicity against human HeLa cells after 48 hrs by MTT assay
SMILES,IC50 (HT-1080) [µM],IC50 (U-937) [µM],IC50 (HCT-116) [µM],IC50 (MCF7) [µM],IC50 (HepG2) [µM],IC50 (A549) [µM],IC50 (HL-60) [µM],IC50 [1] [µM],IC50 (K562) [µM],IC50 (HeLa) [µM]
C=C(C)[C@@]12OC3(c4ccccc4)O[C@@H]1[C@@H]1[C@H](O)[C@](O)(CO)[C@@H](O)[C@]4(O)C(=O)[C@@H](C)C=C4[C@@]1(O3)[C@H](C)[C@H]2OC(=O)c1ccccc1,16.1,29.9,> 50,33.7,27.9,26.9,27.7,14.3,46.9,24.8
C=C(C)[C@]12C[C@@H](C)[C@@]34O[C@@]5(CCCCCCC[C@@H](C)[C@H]6[C@H](C)[C@H](O)[C@@](O)([C@H](O)[C@@]7(COC(=O)c8ccccc8)O[C@H]7[C@H]3[C@H]1O5)[C@@H]64)O2,9.56,16.5,28.9,19.9,11.3,18.8,18.1,29.4,18.7,> 50
C=C(C)[C@]12C[C@@H](C)[C@@]34OC5(CCCCCCC[C@@H](C)[C@H]6[C@H](C)[C@H](O)[C@@](O)([C@H](O)[C@@](O)(COC(=O)c7ccccc7)[C@@H](O)[C@H]3[C@H]1O5)[C@@H]64)O2,7.71,> 50,> 50,> 50,28.6,45,> 50,28.6,> 50,25.2
C=C(C)[C@@]12OC3(/C=C/C=C/CCCCC)O[C@@H]1[C@@H]1[C@@H]4O[C@]4(CO)[C@@H](O)[C@]4(O)C(=O)C(C)=C[C@H]4[C@@]1(O3)[C@H](C)[C@H]2OC(=O)C(C)C,4.55,27.6,25.2,20.8,17.8,23.1,30,24.9,5.11,> 50
C=C(C)[C@]12C[C@@H](C)[C@]34OC5(CCCCCCC[C@H](C)[C@@H]6[C@@H]3[C@]3(O[C@]6(C)OC3=O)[C@H](O)[C@@]3(CO)O[C@H]3[C@H]4[C@H]1O5)O2,0.83,> 50,36,20.3,28.1,35.7,> 50,> 50,> 50,28.1
C=C(C)[C@]12C[C@@H](C)[C@]34OC5(CCCCCCC[C@@H](C)[C@@H]6[C@@H]3[C@]3(O[C@]6(C)OC3=O)[C@H](O)[C@@]3(CO)O[C@H]3[C@H]4[C@H]1O5)O2,20.8,22.9,26.5,7.36,25.2,> 50,34.1,23,26.3,23.2
C=C(C)[C@@]12O[C@@]3(c4ccccc4)O[C@@H]1[C@@H]1[C@@H]4O[C@]4(CO)[C@@H](O)[C@]4(O)C(=O)C(C)=C[C@H]4[C@@]1(O3)[C@H](C)[C@H]2OC(C)=O,< 0.1,> 50,37.5,> 50,> 50,> 50,> 50,> 50,> 50,42.4
C=C(C)[C@@]12O[C@@]3(c4ccccc4)O[C@@H]1[C@@H]1[C@@H]4O[C@]4(CO)[C@@H](O)[C@]4(O)C(=O)C(C)=C[C@H]4[C@@]1(O3)[C@H](C)[C@H]2OC(=O)c1ccccc1,< 0.1,13.2,29.3,2.36,24.1,19.1,24.4,16.9,22.5,19.1
C=C(C)[C@@]12OC3(/C=C/C=C/CCCCC)O[C@@H]1[C@@H]1[C@@H]4O[C@]4(CO)[C@@H](O)[C@]4(O)C(=O)C(C)=C[C@H]4[C@@]1(O3)[C@H](C)[C@H]2OC(=O)CC,28.8,27.4,46.8,> 50,13.5,18.8,22.7,> 50,29.4,25.5
C=C(C)[C@@]12O[C@@]3(c4ccccc4)O[C@@H]1[C@@H]1[C@@H]4O[C@]4(CO)[C@@H](O)[C@]4(O)C(=O)[C@@H](C)C[C@H]4[C@@]1(O3)[C@H](C)[C@H]2OC(C)=O,< 0.1,> 50,> 50,23.6,> 50,> 50,> 50,14.2,> 50,50
C=C(C)[C@@]12O[C@@]3(c4ccccc4)O[C@@H]1[C@@H]1[C@@H]4O[C@]4(CO)[C@@H](O)[C@]4(O)C(=O)[C@@H](C)C[C@H]4[C@@]1(O3)[C@H](C)[C@H]2OC(=O)c1ccccc1,14.3,12.3,24.9,0.37,24.1,12.5,26,9.31,24.6,20.3
C=C(C)[C@]12C[C@@H](C)[C@@]34OC(c5ccccc5)(OC1[C@@H]3[C@@H]1O[C@]1(COC(=O)c1ccccc1)[C@@H](O)[C@@]1(O)[C@H]4C[C@H](C)[C@@H]1O)O2,< 0.1,18.1,28.1,25.3,29.9,23.4,30.9,3.62,20.2,20.2
C=C(C)[C@]12C[C@@H](C)[C@@]34OC(c5ccccc5)(O[C@@H]1[C@@H]3[C@H](O)[C@](O)(COC(=O)/C=C/C=C/CCCCC)[C@@H](O)[C@@]1(O)[C@H]4C[C@H](C)[C@@H]1O)O2,29.9,23.8,27.4,> 50,22.7,22.3,20.5,25.4,24.2,26.2
C=C(C)[C@]1(O)C[C@@H](C)[C@@]2(O)[C@H]([C@H]1OC(=O)c1ccccc1)[C@H](O)[C@](O)(COC(=O)/C=C/C=C/CCCCC)[C@@H](O)[C@@]1(O)[C@H]2C[C@H](C)[C@@H]1O,22.9,15.6,35.8,> 50,17.9,20.9,10.1,23.7,24.5,21.1
O=c1[nH]cc(F)c(=O)[nH]1 [FLUOROURACIL],35.6,23.9,27.8,11.5,40.3,44.1,10.1,6.67,23.6,7.34
C=C(C)[C@@]12O[C@@]3(/C=C/C=C/CCCCC)O[C@@H]1[C@@H]1[C@@H]4O[C@]4(CO)[C@@H](O)[C@]4(O)C(=O)C(C)=C[C@H]4[C@@]1(O3)[C@H](C)[C@H]2OC(=O)c1ccccc1 [GNIDILATIDIN],2.02,11.8,23,2.39,8.04,13.1,26.8,8.72,16.1,5.56
C=C(C)[C@@]12OC3(/C=C/C=C\CCCCC)O[C@@H]1[C@@H]1[C@@H]4O[C@]4(CO)[C@@H](O)[C@]4(O)C(=O)C(C)=C[C@H]4[C@@]1(O3)[C@H](C)[C@H]2OC(C)=O [ISOYUANHUADINE],14.9,17.4,32.3,23.4,30,24.1,17.7,21.5,17.5,0.64
C=C(C)[C@]12C[C@@H](C)[C@@]34OC(c5ccccc5)(O[C@@H]1[C@@H]3[C@@H]1O[C@]1(CO)[C@@H](O)[C@@]1(O)[C@H]4C[C@H](C)[C@@H]1O)O2 [ORTHOBENZOATE],24.5,> 50,49.9,12.4,48.9,> 50,> 50,47.2,42.3,31.7
C=C(C)[C@]12C[C@@H](C)[C@@]34OC5(CCCCCCC[C@H](C)[C@H]6[C@H](C)[C@H](OC(=O)c7ccccc7)[C@@](O)([C@H](O)[C@@]7(CO)O[C@H]7[C@H]3[C@H]1O5)[C@@H]64)O2 [PIMELEA FACTOR P2],13.2,16.7,19.6,> 50,19.1,17,17.9,25.7,25.2,18.3
C=C(C)[C@]12C[C@@H](C)[C@@]34O[C@](CCCCCCCCC)(O[C@@H]1[C@@H]3[C@@H]1O[C@]1(CO)[C@@H](O)[C@]1(O)C(=O)C(C)=C[C@H]14)O2 [SIMPLEXIN],< 0.1,> 50,> 50,25.4,38.8,27,> 50,10.7,> 50,21.7
